Assay results from US20170354629A1, “Method And Compositions For Treating Skin” (ELC Management LLC, priority 2011, published 2017).

Columns and labels:
per1 gene expression = per1 gene expression luciferase reporter assay in keratinocytes; assay type: cell-based; conditions: normal human epidermal keratinocytes (NHEK) transfected with pGL4.11 per1/luciferase plasmid; 16 hours incubation with test material; values only in FIGS. 1 and 2
Experimental: Cichoric acid and […] purpurea extract ([…]) were tested to determine per1 gene expression. Normal human epidermal keratinocytes (NHEK) were diluted in […] with supplement S001-5 added (Gibco, Cascade Biologics, Invitrogen) to form a concentration of 3×10^4 and plated onto a black walled 96 well microtiter plate by adding 100 μl in each well. The plate was incubated for 3 hours at 37° C. in 5% CO2. The media was removed and remaining adhered cells rinsed with […], supplement free. A plasmid solution was prepared by diluting Tris-EDTA pH 8.0 buffer with plasmid pGL4.11 (DNA 2.0, Carlsbad, Calif.) to form a 1 mg/ml solution. This plasmid contained a per1 gene sequence and a luciferase reporter gene sequence. A transfection mixture was prepared by diluting […], supplement free, to form a solution with 0.31 μg/ml of plasmid (obtained by adding appropriate amount of plasmid solution prepared above), 1.28% PlusTM Reagent (Catalog No. 11514-015, Invitrogen, Carlsbad, Calif.), and 3.22% LipofectamineTM Transfection Reagent (Catalog No. 18324-012, Invitrogen, Carlsbad, Calif.). […] Immediately prior to reading, Bright-GloTM (Pro-Mega, Madison Wis.) was added to each well plate in the same volume as is currently in the well (e.g. a 1:1 dilution). Luminescence was measured in an LMaxTM Microplate Luminometer (Molecular Devices, Sunnyvale, Calif.).

[1] = test system: per1 gene expression in skin cells; assay: observation of per1 gene expression in skin cells (no method given); assay type: cell-based; conditions: component commonly found in extracts of Echinacea

`O=C(/C=C/c1ccc(O)c(O)c1)O[C@@H](C(=O)O)[C@@H](OC(=O)/C=C/c1ccc(O)c(O)c1)C(=O)O` [cichoric acid] was tested, and the “per1 gene expression (luminescence of per1-luciferase reporter)” value (per1 gene expression) was “stimulate per1 gene expression”.

With `O=C(/C=C/c1ccc(O)c(O)c1)O[C@@H](C(=O)O)[C@@H](O)C(=O)O` [caftaric acid] the “per1 gene expression in skin cells” value [1] was “does not increase per1 gene expression”.
